Common to all, as to assay: NCI-60 cell line screen, 48 h
In assay [1] the test system is HOP-92.
Assay [2] concerns OVCAR-4.
The test system of assay [3] is SK-OV-3.
For assay [4], the system named is NCI-H522.
For assay [5], the system named is Malme-3M.
For assay [6], the system named is SF-539.
The subject of assay [7] is HCC 2998.
Assay [8] concerns OVCAR-3.
For assay [9], the system named is SW-620.
Assay [10] has as its system MOLT-4.
Assay [11] has as its system TK-10.
For assay [12], the system named is M19-MEL.
In assay [13] the test system is Hs-578T.
Assay [14] deals with HCT-15.
Assay [15] relates to HT-29.
The test system of assay [16] is M14.
In assay [17] the test system is OVCAR-5.
For assay [18], the system named is NCI/ADR-RES.
The test system of assay [19] is SF-268.
In assay [20] the test system is HOP-62.

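Step 1: Grow cells in 96-well plates. Step 2: Expose to compound for 48 hours at 5 concentrations. Step 3: Interpolate endpoints linearly; if unreached, use highest concentration. The concentration for 50% growth inhibition is given as GI50.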 Activity calls are given as the source filed them. Rule as the data show it: active = GI50 up to about 1.1 µM and inactive = higher.

With `COc1ccc(/C=C2\CCC(C)(CN(C)C)C2=O)cc1Br` (stereo unspecified), the GI50 in assay [1] was 29.9 µM (inactive); in assay [2] it was 18.9 µM (inactive); in assay [3], 30.1 µM (inactive); in [4] it was 17 µM (inactive); in [5] it was 25.8 µM (inactive); in assay [6], 21.5 µM (inactive). Besides, the GI50 in [7] is 20.8 µM (inactive); in assay [8], 18.2 µM (inactive); in assay [9], 19.8 µM (inactive); in assay [10] it was 20.3 µM (inactive); in assay [11], 22 µM (inactive); in [12], 17.3 µM (inactive). The GI50 in assay [13] was 30.5 µM (inactive); in [14], 16.9 µM; in assay [15], 21.9 µM (inactive); in assay [16], 19.8 µM (inactive); in [17], 37.7 µM (inactive); in assay [18], 22.3 µM (inactive). Further, the figures for the GI50 in assay [19] and in [20] were 16.5 µM (inactive) and 49.3 µM (inactive), respectively.

Take `CC(C)C1COC(c2cccc(C3=N[C@@H](C(C)C)CO3)n2)=N1` (stereo partly specified): the GI50 in [1], in assay [2], in assay [3], in assay [4], in assay [5] and in [6] was > 100 µM (inactive) throughout. The GI50 in [7], in assay [8], in [9], in assay [10], in assay [11] and in assay [12] was > 100 µM (inactive) throughout. The GI50 in [14] is more than 100 µM; in assay [15], > 100 µM (inactive); in assay [16], > 100 µM (inactive); in assay [17] it was > 100 µM (inactive); in assay [19], > 100 µM (inactive); in assay [20], > 100 µM (inactive).

With `CS/C(C)=N/OC(=O)NCCCCNc1ccc(N=[N+]=[N-])cc1`, the GI50 was 55.3 µM (inactive) in [1]; 42.9 µM (inactive) in [2]; 37.9 µM (inactive) in assay [3]; 4.76 µM (inactive) in [4]; 32 µM (inactive) in assay [5]; 50.5 µM (inactive) in assay [6]. Moreover, the GI50 in assay [7] was 23.9 µM (inactive); in assay [8], 27.7 µM (inactive); in [9], 58.5 µM (inactive); in assay [10] it was 28.4 µM (inactive); in assay [11] it was 33.3 µM (inactive); in assay [12], 34.6 µM (inactive). Also, the GI50 in assay [14] was 36.9 µM; in [15], 46.2 µM (inactive); in assay [16], 37.7 µM (inactive); in assay [17] it was > 100 µM (inactive); in assay [19], 32.7 µM (inactive); in [20], 48.2 µM (inactive).

The values are drawn from ChEMBL document CHEMBL1201862, “PubChem BioAssay data set” (2004).
